Data on ten molecules can be found in ChEMBL document CHEMBL1201862, “PubChem BioAssay data set” (2004).

Molecules are shown by their SMILES. Active and inactive are the calls of the source.

Assay [1] addresses Hepatocyte nuclear factor 4-alpha (Homo sapiens, UniProt P41235). Type of assay: functional, cell-based.
Assay [2] can be described thus: Luminescence Cell-Based Dose Retest to Confirm Inhibitors of Cancer Stem Cells. [Related pubchem assays (depositor defined):AID2717, AID2721]. Type of assay: functional. To be noted: Homo sapiens.
The subject of the next assay is CHO. Briefly: cytotoxicity in TLR9-MyD88 CHO cells, dose response, cytotoxicity control for TLR9-MyD88 binding inhibitor project, cell-based, luminescence (AID 588339).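 Further: CHO cells stably coexpressing TLR9 and MyD88 fusions from primary screen; compound exposure lasted 48 hours before viability readout.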 The format is functional, hamster. To be noted: Cricetulus griseus.
The target in the next assay is Beta Lactamase (Pseudomonas aeruginosa, UniProt Q932Y6). Put plainly: beta-lactamase reporter inhibitor potency, dose response, artefact control for TLR9-MyD88 binding inhibitor project, BLA reporter cells, FRET fluorescence (AID 588341).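 Further: cell based assay in CHO-K1 cells stably expressing beta-lactamase.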 The format is cell-based.
The nature of assay [3]: HEK293T cell cytotoxicity, dose response, cytotoxicity control for HIV Vif inhibitor project, cherry-picks (AID 652208). The format is functional, cell-based.
The nature of assay [4]: cells. The format is functional.
Assay [5] addresses Low molecular weight phosphotyrosine protein phosphatase (Homo sapiens, UniProt P24666). The format is functional. To be noted: read-out: IC50_Mean.
Another assay concerns the target Beta-galactosidase (Escherichia coli, UniProt Q8VNN2). Put plainly: Dose response counterscreen for EBI2 assay utilizing the enzyme, b-galactosidase. Type of assay: functional.
The target in assay [6] is Photoreceptor-specific nuclear receptor (Homo sapiens, UniProt Q9Y5X4). The format is functional, cell-based.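 Further: CHO-S cells with Gal4-NCOR and VP16-NR2E3 two-hybrid luciferase reporter.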
The target of assay [7] is Fructose-bisphosphate aldolase (Mycobacterium tuberculosis, UniProt P9WQA3). Put plainly: Fluorescence-based biochemical high throughput dose response assay for inhibitors of the fructose-bisphosphate aldolase (FBA) of M. tuberculosis. The format is functional.
The nature of assay [8]: Luminescence Cell-Based Dose Confirmation HTS to Identify Activators of 5'UTR Stem-Loop Driven Alpha-Synuclein mRNA Translation in H4 Neuroglioblastoma Cells. [Related pubchem assays: 1829 (Project Summary), 1814 (Primary HTS)]. Type of assay: functional.
Assay [9] is described as follows: Luminescence Cell-Based Dose Response HTS to Identify Activators of Luciferase Translation or Activity in H4 […] Cells. [Related pubchem assays: 1829 (Project Summary), 1814 (Primary HTS)]. Type of assay: functional.
Assay [10] is described as follows: cells. The format is functional, cell-based.
For another assay, the system named is H4. Briefly: Luminescence Cell-Based Dose Response HTS to Identify Activators of 5'UTR Stem-Loop Driven Prion Protein mRNA Translation in H4 Neuroglioblastoma Cells. [Related pubchem assays: 1829 (Project Summary), 1814 (Primary HTS)]. The format is functional. As to conditions: Homo sapiens.
Assay [11] is described as follows: inhibitors of intracellular T. cruzi replication, confirmation, NIH3T3 host cells, beta-gal luminescence (AID 2044).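 Further: intracellular parasites grown in NIH/3T3 mouse fibroblasts as host cells; luminescent beta-galactosidase reporter signal from transgenic T. cruzi replicating inside host cells; inhibitors lower the luminescence signal.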 The format is functional, cell-based.
Assay [12] is described as follows: cells. Type of assay: functional, cell-based. The source holds these as a separate data set.
Assay [13] in a line: cytotoxicity toward NIH3T3 fibroblasts, dose response, counter-screen, cell-based, ATP luminescence, mouse fibroblasts (AID 2010).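 Further: cells exposed to compound for about 90 hours before reading.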 The format is functional.
The target of assay [14] is T1, Short transient receptor potential channel 4 (Mus musculus, UniProt Q9QUQ5).
T1 sequence (Q9QUQ5 whole entry): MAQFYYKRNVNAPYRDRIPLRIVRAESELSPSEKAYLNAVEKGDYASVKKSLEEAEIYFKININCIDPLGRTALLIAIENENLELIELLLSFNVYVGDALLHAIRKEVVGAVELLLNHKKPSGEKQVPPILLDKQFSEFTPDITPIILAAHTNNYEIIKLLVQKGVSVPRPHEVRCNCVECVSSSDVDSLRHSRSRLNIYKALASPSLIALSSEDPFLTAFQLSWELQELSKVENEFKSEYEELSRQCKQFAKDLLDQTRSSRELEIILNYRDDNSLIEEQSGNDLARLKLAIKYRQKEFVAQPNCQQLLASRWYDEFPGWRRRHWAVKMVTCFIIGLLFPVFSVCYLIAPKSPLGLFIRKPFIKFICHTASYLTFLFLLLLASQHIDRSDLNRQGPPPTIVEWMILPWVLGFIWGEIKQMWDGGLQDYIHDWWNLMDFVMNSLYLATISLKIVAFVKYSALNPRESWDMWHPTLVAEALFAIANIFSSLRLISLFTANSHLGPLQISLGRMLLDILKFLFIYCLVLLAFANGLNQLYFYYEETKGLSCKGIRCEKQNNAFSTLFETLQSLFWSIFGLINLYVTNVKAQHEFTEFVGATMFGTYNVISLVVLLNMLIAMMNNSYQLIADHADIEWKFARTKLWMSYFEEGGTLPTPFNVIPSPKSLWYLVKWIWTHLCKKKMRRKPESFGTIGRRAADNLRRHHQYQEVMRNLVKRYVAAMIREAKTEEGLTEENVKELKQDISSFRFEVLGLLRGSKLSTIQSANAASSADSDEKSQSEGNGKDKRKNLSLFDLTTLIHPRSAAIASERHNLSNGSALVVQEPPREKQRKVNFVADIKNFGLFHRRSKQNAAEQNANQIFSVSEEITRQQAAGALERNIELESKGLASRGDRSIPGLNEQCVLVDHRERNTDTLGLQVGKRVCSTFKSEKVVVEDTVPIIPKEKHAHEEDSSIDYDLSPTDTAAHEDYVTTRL
Briefly: mouse TRPC4 channel inhibitors, dose response, cell-based, HEK293 TRPC4/mu-opioid, Fluo-4 calcium (AID 434942).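 Further: potency of inhibitors blocking the TRPC4 calcium response.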 Type of assay: functional.

Another assay relates to INS1. Put plainly: beta cell apoptosis inhibitors, cytokine rescue, dose response, luminescence, retest (AID 449756).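 Further: cell death triggered by IL-1 beta plus TNF-alpha plus IFN-gamma mixture; protective hits raise ATP signal compared with cytokine alone wells.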 As to conditions: Rattus norvegicus. The format is functional, cell-based.
For assay [15], the target named is DNA (cytosine-5)-methyltransferase 1 (Homo sapiens, UniProt P26358). Put plainly: DNMT1 methyltransferase inhibitors, confirmation, biochemical, fluorescent molecular beacon (AID 602386). The format is functional.
Assay [16] addresses SWI/SNF-related matrix-associated actin-dependent regulator of chromatin subfamily A member 2 (Homo sapiens, UniProt P51531). Briefly: Luminescence-based cell-based high throughput dose response assay to identify activators of the function of SWI/SNF related, matrix associated, actin dependent regulator of chromatin, subfamily a, member 2 (SMARCA2, BRM). The format is functional.

The nature of assay [17]: Counterscreen for activators of the function of SWI/SNF related, matrix associated, actin dependent regulator of chromatin, subfamily a, member 2 (SMARCA2, BRM): Luminescence-based cell-based high throughput dose response assay to identify non-selective compounds using the VP16 reporter assay. Type of assay: functional.
The target of assay [18] is T2, Sentrin-specific protease 1 (Homo sapiens, UniProt Q9P0U3).
T2 sequence (Q9P0U3 whole entry): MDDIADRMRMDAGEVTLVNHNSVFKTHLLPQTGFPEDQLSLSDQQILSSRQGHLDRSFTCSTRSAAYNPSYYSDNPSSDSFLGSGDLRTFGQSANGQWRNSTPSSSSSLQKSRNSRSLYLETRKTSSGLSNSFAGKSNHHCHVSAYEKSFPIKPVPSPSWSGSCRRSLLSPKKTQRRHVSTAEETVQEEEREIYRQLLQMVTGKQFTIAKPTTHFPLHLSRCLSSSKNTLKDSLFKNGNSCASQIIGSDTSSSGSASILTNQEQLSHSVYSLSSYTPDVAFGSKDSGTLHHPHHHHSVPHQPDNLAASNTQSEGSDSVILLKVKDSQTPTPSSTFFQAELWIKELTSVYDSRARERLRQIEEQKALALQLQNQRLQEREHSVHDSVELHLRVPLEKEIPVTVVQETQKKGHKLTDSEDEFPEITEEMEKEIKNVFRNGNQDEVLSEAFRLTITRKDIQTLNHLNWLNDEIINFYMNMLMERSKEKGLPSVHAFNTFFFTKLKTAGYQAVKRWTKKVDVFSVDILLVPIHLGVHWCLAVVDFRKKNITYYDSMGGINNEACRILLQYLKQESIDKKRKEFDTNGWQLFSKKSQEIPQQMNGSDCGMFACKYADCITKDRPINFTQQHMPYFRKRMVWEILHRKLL
Put plainly: potency of human SENP1 inhibitors, dose response, biochemical, kinetic FRET (AID 651697). The format is functional. To be noted: read-out: IC50_Mean.

Assay [19] has as its target T2, Sentrin-specific protease 1. Put plainly: Dose response confirmation of small molecule inhibitors of the catalytic domain of the SUMO protease, SENP1 in a FRET assay. The format is functional. As to conditions: read-out: IC50_Mean.
The target in assay [20] is Voltage-gated inwardly rectifying potassium channel KCNH2 (Homo sapiens, UniProt Q12809). As to conditions: Potency.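 Further: confirmatory quantitative high-throughput screen measuring inhibition of hERG channel activity.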
Assay [21] concerns the target T3, Aryl hydrocarbon receptor (Homo sapiens, UniProt P35869).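 Further: confirmatory quantitative high-throughput screen measuring activation of the AhR signaling pathway.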
T3 sequence (P35869 whole entry): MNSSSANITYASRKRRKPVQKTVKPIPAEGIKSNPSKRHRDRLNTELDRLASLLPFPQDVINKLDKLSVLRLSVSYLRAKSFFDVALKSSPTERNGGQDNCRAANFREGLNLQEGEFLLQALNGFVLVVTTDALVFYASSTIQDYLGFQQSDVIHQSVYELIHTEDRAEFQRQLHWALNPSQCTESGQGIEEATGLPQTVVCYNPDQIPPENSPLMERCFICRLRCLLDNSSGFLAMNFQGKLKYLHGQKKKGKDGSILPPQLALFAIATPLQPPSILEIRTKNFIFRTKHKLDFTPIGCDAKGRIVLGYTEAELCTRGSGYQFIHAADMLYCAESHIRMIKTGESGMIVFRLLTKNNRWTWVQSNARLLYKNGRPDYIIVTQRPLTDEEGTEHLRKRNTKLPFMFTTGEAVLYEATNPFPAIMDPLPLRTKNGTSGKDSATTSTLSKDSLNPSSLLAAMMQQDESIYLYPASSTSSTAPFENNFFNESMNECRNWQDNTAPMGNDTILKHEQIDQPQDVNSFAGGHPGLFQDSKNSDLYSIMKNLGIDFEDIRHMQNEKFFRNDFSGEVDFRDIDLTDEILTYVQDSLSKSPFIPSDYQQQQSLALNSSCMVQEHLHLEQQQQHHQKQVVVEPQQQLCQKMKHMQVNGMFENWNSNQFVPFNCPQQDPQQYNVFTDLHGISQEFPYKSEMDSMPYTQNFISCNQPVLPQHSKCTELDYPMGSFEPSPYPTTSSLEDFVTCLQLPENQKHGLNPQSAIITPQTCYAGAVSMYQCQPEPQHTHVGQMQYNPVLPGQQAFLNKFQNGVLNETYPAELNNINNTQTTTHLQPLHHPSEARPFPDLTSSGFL
As to conditions: Potency.

Chain of Hepatocyte nuclear factor 4-alpha (P41235 whole entry): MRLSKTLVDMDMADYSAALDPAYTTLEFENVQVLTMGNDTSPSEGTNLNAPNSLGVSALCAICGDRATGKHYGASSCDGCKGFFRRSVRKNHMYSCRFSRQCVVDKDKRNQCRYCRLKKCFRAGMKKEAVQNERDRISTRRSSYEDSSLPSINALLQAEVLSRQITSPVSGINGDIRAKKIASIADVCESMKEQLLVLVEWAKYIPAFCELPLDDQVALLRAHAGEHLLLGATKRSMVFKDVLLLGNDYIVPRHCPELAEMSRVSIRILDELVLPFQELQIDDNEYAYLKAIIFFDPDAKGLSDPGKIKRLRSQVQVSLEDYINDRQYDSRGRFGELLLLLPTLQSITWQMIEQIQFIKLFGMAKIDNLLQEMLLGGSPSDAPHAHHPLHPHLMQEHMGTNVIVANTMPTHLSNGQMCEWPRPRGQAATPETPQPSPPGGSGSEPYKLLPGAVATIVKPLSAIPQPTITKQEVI
Chain of Low molecular weight phosphotyrosine protein phosphatase (P24666 whole entry): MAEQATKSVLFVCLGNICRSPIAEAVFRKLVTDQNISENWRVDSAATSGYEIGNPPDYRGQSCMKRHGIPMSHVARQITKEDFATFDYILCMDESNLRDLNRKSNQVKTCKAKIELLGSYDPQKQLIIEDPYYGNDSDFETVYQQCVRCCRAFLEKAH
Chain of SWI/SNF-related matrix-associated actin-dependent regulator of chromatin subfamily A member 2 (P51531 whole entry): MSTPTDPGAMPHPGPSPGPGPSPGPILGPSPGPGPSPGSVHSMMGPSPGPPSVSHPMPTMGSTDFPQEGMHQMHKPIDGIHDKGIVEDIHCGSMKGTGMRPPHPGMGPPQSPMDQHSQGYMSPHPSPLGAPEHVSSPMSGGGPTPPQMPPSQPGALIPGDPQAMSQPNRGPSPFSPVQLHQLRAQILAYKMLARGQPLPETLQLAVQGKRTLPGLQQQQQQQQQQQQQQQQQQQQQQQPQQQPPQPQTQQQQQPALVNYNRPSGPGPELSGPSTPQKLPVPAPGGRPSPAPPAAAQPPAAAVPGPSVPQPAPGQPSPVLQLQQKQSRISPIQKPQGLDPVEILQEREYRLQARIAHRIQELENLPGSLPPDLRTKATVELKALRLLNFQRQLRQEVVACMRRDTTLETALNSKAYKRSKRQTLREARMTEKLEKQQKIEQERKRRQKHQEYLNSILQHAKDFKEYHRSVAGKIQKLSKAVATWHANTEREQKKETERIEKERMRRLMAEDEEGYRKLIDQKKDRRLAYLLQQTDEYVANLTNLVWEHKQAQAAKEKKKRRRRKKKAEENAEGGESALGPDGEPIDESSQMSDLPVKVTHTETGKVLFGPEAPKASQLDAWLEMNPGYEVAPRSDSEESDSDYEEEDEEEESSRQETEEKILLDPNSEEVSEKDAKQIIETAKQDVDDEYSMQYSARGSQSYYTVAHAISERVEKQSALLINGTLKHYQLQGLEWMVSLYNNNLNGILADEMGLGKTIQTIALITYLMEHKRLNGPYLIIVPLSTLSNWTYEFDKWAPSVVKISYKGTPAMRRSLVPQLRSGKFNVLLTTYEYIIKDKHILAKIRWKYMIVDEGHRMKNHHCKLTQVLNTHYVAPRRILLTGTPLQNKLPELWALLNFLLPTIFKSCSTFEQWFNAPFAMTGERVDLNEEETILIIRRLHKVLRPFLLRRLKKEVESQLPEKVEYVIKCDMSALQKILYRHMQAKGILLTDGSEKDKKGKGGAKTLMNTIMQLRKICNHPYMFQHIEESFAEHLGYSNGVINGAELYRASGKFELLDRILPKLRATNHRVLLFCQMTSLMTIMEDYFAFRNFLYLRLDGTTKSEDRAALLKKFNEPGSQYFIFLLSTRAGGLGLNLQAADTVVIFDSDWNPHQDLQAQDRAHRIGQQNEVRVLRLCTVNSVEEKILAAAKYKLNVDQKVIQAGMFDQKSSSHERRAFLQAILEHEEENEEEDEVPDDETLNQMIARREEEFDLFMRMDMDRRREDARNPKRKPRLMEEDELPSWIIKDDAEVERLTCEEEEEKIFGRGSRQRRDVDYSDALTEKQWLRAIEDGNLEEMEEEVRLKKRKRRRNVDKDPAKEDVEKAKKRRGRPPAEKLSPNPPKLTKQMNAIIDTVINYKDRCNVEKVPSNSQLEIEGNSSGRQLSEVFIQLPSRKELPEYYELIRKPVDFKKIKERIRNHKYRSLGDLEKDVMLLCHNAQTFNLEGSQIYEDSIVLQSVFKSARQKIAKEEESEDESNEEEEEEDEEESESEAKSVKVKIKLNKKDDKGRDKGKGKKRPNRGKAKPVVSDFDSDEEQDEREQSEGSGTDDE
Chain of Beta Lactamase (Q932Y6 whole entry): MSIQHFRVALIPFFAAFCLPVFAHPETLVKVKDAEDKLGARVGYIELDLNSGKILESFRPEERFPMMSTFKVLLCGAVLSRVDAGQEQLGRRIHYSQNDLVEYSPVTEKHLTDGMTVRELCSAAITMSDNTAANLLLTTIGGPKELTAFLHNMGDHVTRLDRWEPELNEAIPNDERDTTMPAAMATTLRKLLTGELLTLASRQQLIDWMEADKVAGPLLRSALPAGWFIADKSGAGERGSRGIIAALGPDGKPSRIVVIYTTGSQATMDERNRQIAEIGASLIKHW
Chain of Fructose-bisphosphate aldolase (P9WQA3 whole entry): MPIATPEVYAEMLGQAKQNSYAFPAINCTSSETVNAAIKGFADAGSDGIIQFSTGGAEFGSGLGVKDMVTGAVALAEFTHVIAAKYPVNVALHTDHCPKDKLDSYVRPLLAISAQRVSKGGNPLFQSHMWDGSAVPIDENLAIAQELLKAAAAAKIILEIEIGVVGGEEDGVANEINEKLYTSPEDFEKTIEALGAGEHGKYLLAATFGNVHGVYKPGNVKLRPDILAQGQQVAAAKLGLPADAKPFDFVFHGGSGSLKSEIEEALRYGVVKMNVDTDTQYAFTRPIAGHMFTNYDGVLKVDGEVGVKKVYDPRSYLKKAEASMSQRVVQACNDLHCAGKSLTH
Chain of Beta-galactosidase (Q8VNN2 whole entry, the tested form may be a part): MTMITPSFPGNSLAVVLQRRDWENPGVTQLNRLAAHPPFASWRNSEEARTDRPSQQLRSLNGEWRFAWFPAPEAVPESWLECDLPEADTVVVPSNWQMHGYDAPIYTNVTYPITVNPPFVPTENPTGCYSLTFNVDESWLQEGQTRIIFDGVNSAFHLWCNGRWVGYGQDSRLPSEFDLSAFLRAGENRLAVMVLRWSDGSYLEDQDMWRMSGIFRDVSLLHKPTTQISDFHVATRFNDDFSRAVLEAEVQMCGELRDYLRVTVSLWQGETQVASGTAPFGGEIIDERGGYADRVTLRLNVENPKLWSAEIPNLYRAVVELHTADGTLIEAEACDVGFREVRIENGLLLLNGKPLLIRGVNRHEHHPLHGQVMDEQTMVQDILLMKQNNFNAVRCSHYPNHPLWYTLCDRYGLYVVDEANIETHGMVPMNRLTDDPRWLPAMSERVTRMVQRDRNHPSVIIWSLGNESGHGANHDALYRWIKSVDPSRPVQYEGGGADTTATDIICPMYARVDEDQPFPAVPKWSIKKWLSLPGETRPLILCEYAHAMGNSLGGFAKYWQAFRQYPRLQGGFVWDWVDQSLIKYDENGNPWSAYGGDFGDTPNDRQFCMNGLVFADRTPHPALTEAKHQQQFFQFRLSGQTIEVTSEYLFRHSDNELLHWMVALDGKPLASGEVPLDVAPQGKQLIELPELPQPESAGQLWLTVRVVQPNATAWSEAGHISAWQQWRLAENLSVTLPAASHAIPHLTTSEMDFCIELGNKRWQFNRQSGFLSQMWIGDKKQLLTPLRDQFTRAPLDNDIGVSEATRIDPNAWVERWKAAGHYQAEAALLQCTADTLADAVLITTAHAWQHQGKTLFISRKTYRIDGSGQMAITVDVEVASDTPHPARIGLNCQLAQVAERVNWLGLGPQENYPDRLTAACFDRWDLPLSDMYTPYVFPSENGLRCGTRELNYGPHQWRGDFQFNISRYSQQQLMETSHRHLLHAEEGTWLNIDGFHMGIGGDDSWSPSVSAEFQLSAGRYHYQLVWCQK
Chain of Photoreceptor-specific nuclear receptor (Q9Y5X4 whole entry, the tested form may be a part): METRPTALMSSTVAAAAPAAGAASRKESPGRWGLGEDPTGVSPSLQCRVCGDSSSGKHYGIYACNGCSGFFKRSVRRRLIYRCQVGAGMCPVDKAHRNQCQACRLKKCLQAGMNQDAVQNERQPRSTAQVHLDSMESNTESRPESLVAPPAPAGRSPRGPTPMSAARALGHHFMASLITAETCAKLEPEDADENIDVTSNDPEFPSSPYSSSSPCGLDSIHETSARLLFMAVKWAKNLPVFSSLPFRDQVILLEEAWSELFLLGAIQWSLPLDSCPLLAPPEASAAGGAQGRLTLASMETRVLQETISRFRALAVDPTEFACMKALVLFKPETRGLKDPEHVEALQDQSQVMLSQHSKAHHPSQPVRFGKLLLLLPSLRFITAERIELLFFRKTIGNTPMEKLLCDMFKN

As for `CCCCCCC=C1CCC(CN2CCCC2)C1=O` (configuration not stated), the IC50 in [1] is 2.25 µM (active).
As to `COc1ccc(-c2nc3cnccn3c2NC2CCCCC2)cc1-c1cccc(Cl)c1`, the figures for the concentration at half-maximal activity (AC50) in assay [2] and in assay [3] were 4.23 µM (active) and 39.2 µM (active), respectively. In addition, the IC50 with CHO was 25.4 µM (inactive); on Beta Lactamase, 6.78 µM (active).
Consider `CCn1cc(C(=O)O)c(=O)c2cc(F)c(N3CCN(C(=S)NC(=O)c4ccccc4)CC3)cc21`, for which the figures for the IC50 (in “cells [4]”; in assay [5]) were 42.6 µM (active) and 15.4 µM (active), respectively.
Regarding `CCc1cc2cc(C(=O)N3CCN(Cc4ccccc4)CC3)sc2s1`, the IC50 on Beta-galactosidase was > 80 µM (inactive).
In the case of `COc1ccc(NC(=O)c2sc(=O)n(Cc3ccc(F)c(Cl)c3)c2C)cc1OC`, in assay [6], the IC50 was 8.01 µM (active).
Take `Cc1ccc(-c2cc(C(=O)O)c3cc(Br)ccc3n2)s1`: the IC50 in assay [7] was > 1.11 µM (active).
`CCN(CC)CCn1c2ccccc2c2cnc(N)c(C#N)c21`: the EC50 in [8] is 10.2 µM (active); in [9], 21 µM (active); in the assay “cells [10]” it was > 350 µM (not active); with H4 it was > 120 µM (not active); in assay [11] it was 1.21 µM (active); in “cells [12]”, > 350 µM (not active). Further, the EC50 in [13] is 9.47 µM (active); in assay [14], 4.73 µM (active); in assay [16] it was > 3.38 µM (active); in [17], > 91.2 µM (inactive). Moreover, the AC50 in the assay on INS1 is 3.09 µM (active). In assay [15], the IC50 is > 99 µM (inactive).
`CCOc1cccc(/C=C2\NC(=S)N(c3ccccc3)C2=O)c1O`: the values for the IC50 in [18] and in assay [19] were 80 µM (inactive) and 20 µM (inactive), respectively.
`[O-]/[N+](=N/c1ccccc1)c1ccccc1`: the values for the AC50 in [20] and in assay [21] were 50.1 µM (inconclusive) and 56.2 µM (inconclusive), respectively.
In the case of `COc1ccc(C(C(=O)Nc2ccc3c(c2)OCCO3)n2c(=O)c(-c3ccco3)nc3ccccc32)cc1` (configuration not stated), the IC50 in assay [1] is 12.5 µM (inactive).
